Measurements reported in US6407288B1, “Naphthylsalicylanilides as antimicrobial and antiinflammatory agents” (The Research Foundation of State University of New York, priority 2000, dated 2002).
In brackets after ≈: the same amount, converted by molar mass.

Experiments:
[1] = system: S. mutans; experiment: MIC microdilution, gram positive; type: cell-based, Streptococcus mutans; conditions: Streptococcus mutans; Table 1, Gram Positive
Method in brief: (§1)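 Anaerobic strains required supplemented half-strength BHI and incubation in 5% CO2, 10% H2, balance N2; aerobic strains used full-strength BHI. Inoculum approx. 1×10^8 CFU/mL; compounds from DMSO, 50 to 0.05 μg/assay; visual MIC.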

[2] = system: S.salivarius; experiment: MIC microdilution, gram positive; type: cell-based, Streptococcus salivarius; conditions: Streptococcus salivarius; Table 1, Gram Positive
Method in brief: as §1

[3] = system: P. acnes 11828; experiment: MIC microdilution, gram positive; type: cell-based, Propionibacterium acnes; conditions: Cutibacterium acnes, 11828; Table 1, Gram Positive
Method in brief: as §1

[4] = system: P. acnes 6922; experiment: MIC microdilution, gram positive; type: cell-based, Propionibacterium acnes; conditions: Cutibacterium acnes, 6922; Table 1, Gram Positive
Method in brief: as §1

[5] = system: S. aureus; experiment: MIC microdilution, gram positive; type: cell-based, Staphlococcus aureus; conditions: for MIC: Staphylococcus aureus
Method in brief: (§2)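 Broth microdilution (modified NCCLS M7-A4): BHI for aerobes, supplemented half-strength BHI under 5% CO2/10% H2/N2 for anaerobes; 10 μL of ~1×10^8 CFU/mL inoculum; drugs 50 to 0.05 μg/assay from DMSO stock. Duplicates incubated 24–48 h; MIC = lowest concentration without visible growth. Staphylococcus R: coagulase-negative clinical isolate 00-045-1209.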

[6] = system: Lact 7496; experiment: MIC microdilution, gram positive; type: cell-based, Lactobacillus rhamnosus (casei); conditions: Lacticaseibacillus rhamnosus, 7496; Table 2, Gram Positive
Method in brief: as §1

[7] = system: M. luteus; experiment: MIC microdilution, gram positive; type: cell-based, Micrococcus luteus; conditions: Micrococcus luteus; Table 2, Gram Positive
Method in brief: as §1

[8] = system: Fuso. 25586; experiment: MIC microdilution, gram negative; type: cell-based, Fusobacterium nucleatum; conditions: for MIC: Fusobacterium nucleatum, Table 3, Gram Negative; for MIC Fuso. 25586: Table 3 printed a second time, Gram Negative
Method in brief: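 Modified NCCLS broth microdilution; anaerobes grown 48-72 hrs in half-strength BHI with yeast extract, hemin and menadione, aerobes in full-strength BHI, inoculum ~1×10^8 CFU/mL (10 μL/assay). Drugs from DMSO stock, final 50 to 0.05 μg/assay, duplicate, 24 to 48 hrs (anaerobic: 5% CO2, 10% H2, N2); MIC = lowest concentration without visible growth.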

[9] = system: S. species R; experiment: Staphylococcus MIC; type: cell-based, staphylococcus species R; conditions: for MIC: Staphylococcus, second Table 5 (Example 5), strain 00-045-1209
Method in brief: as §2

SMILES: O=C(c1ccc(-c2ccccc2)cc1)c1ccc(O)c(C(=O)Nc2cccc(C(F)(F)F)c2)c1 [BPAmF, reference compound]
- MIC [1]: > 50 µg/mL
- MIC [2]: > 50 µg/mL
- MIC [3]: 0.4 µg/mL (≈ 0.867 µM)
- MIC [4]: 0.2 µg/mL (≈ 0.433 µM)
- MIC ([5]; Table 2, Gram Positive): > 50 µg/mL
- MIC S. aureus ([5]; second Table 5 (Example 5)): NE (NE indicates that the drug was not effective at a concentration >50 micrograms/ml)
- MIC [6]: 6.3 µg/mL (≈ 13.7 µM)
- MIC [7]: 3.1 µg/mL (≈ 6.72 µM)
- MIC [8]: > 50 µg/mL
- MIC Fuso. 25586 [8]: NE (NE indicates that the drug was not effective at a concentration >50 micrograms/ml)
- MIC [9]: > 50 µg/mL

SMILES: CCCCc1ccc(C(=O)c2ccc(O)c(C(=O)Nc3cccc(C(F)(F)F)c3)c2)cc1 [BBAmF, reference compound]
- MIC [1]: > 50 µg/mL
- MIC [2]: > 50 µg/mL
- MIC [3]: 0.8 µg/mL (≈ 1.81 µM)
- MIC [4]: 0.2 µg/mL (≈ 0.453 µM)
- MIC ([5]; Table 2, Gram Positive): > 50 µg/mL
- MIC S. aureus ([5]; second Table 5 (Example 5)): NE (NE indicates that the drug was not effective at a concentration >50 micrograms/ml)
- MIC [6]: 6.3 µg/mL (≈ 14.3 µM)
- MIC [7]: 3.1 µg/mL (≈ 7.02 µM)
- MIC [8]: > 50 µg/mL
- MIC Fuso. 25586 [8]: NE (NE indicates that the drug was not effective at a concentration >50 micrograms/ml)
- MIC [9]: > 50 µg/mL

SMILES: N#Cc1cccc(NC(=O)c2cc(C(=O)c3ccc(-c4ccccc4)cc3)ccc2O)c1 [BPAmC, reference compound]
- MIC [1]: > 50 µg/mL
- MIC [2]: > 50 µg/mL
- MIC [3]: 12.5 µg/mL (≈ 29.9 µM)
- MIC [4]: 0.2 µg/mL (≈ 0.478 µM)
- MIC ([5]; Table 2, Gram Positive): > 50 µg/mL
- MIC S. aureus ([5]; second Table 5 (Example 5)): NE (NE indicates that the drug was not effective at a concentration >50 micrograms/ml)
- MIC [6]: 12.5 µg/mL (≈ 29.9 µM)
- MIC [7]: 3.1 µg/mL (≈ 7.41 µM)
- MIC [8]: > 50 µg/mL
- MIC Fuso. 25586 [8]: NE (NE indicates that the drug was not effective at a concentration >50 micrograms/ml)
- MIC [9]: > 50 µg/mL

SMILES: N#Cc1cccc(NC(=O)c2cc(C(=O)c3cccc4ccccc34)ccc2O)c1 [NA1mC]
- MIC [1]: 3.1 µg/mL (≈ 7.9 µM)
- MIC [2]: 50 µg/mL (≈ 127 µM)
- MIC [3]: 6.3 µg/mL (≈ 16.1 µM)
- MIC [4]: 6.3 µg/mL (≈ 16.1 µM)
- MIC ([5]; second Table 5 (Example 5)): 12.5 µg/mL (≈ 31.9 µM)
- MIC [6]: 3.1 µg/mL (≈ 7.9 µM)
- MIC [7]: 3.1 µg/mL (≈ 7.9 µM)
- MIC [8]: 2.5 µg/mL (≈ 6.37 µM)
- MIC Fuso. 25586 [8]: 2.5 micrograms/ml
- MIC [9]: 25 µg/mL (≈ 63.7 µM)

SMILES: O=C(Nc1cccc(C(F)(F)F)c1)c1cc(C(=O)c2cccc3ccccc23)ccc1O [NA1mF]
- MIC [1]: 0.8 µg/mL (≈ 1.84 µM)
- MIC [2]: 3.1 µg/mL (≈ 7.12 µM)
- MIC [3]: 0.4 µg/mL (≈ 0.919 µM)
- MIC [4]: 0.2 µg/mL (≈ 0.459 µM)
- MIC ([5]; second Table 5 (Example 5)): 3.1 µg/mL (≈ 7.12 µM)
- MIC [6]: 0.4 µg/mL (≈ 0.919 µM)
- MIC [7]: 0.8 µg/mL (≈ 1.84 µM)
- MIC [8]: 3.1 µg/mL (≈ 7.12 µM)
- MIC Fuso. 25586 [8]: 3.1 micrograms/ml
- MIC [9]: 1.6 µg/mL (≈ 3.67 µM)
- sensitivity of staphylococcus species R to the compounds ([9]; statement in text referring to Table 5): highest effect
